From patent US7470550B2, “Method of evaluating cell activity” (Toyo Advanced Technologies Co., Ltd., priority 2001, dated 2008) come the findings set out here.

Common to all, as to type: cell-based
One assay relates to Mast cells. Put plainly: SPR measurement of reaction of mast cells on an antigen. Here is the method: (§1) The method of the invention will be explained in more detail by the following examples, which are not intended to limit the scope of the invention. In the following examples, SPR-CELLIA (Japan Laser Electronic Co.) was used as an SPR analyzer. The sensor chip for amine coupling was prepared as follows.
(§2) In 10 μM solution of 4,4-dithiodibutyric acid in ethanol was immersed a sensor chip and stirred for 30 minutes. Thereafter, the chip was washed with dry ethanol and dried. Water-soluble carbodiimide (25 mg) was dissolved in 1 ml of MilliQ water, and 15mg of N-hydroxysuccinimide in 9 ml of 1,4-dioxane, respectively. Both solutions were mixed immediately before the dried sensor chip was immersed therein and the mixture stirred for 10 minutes. Then, there was added 10 ml of MilliQ water, and the mixture was stirred for 5 minutes. The chip was washed with MilliQ water and preserved in MilliQ water.
Mast cells (2×10^5 cells/ml, 70 μl) were immobilized on a sensor chip in the same manner as in Example 1. IgE was added to a measuring portion, and incubated in a CO2 incubator at 37° C. overnight. The chip was set on an SPR analyzer, and a running buffer (PIPES buffer, pH 7.2) was perfused at a flow rate of 15 μl/min at a fixed temperature of 37° C. Then, 60 μl of 100 ng/ml DNP-HSA (dinitrophenyl-human serum albumin) or 10 μg/ml DNP-lysine was injected, while a running buffer was perfused continuously, and the change of signal was measured. The composition of PIPES (piperaine-N,N′-bis[2-ethane-sulfonic acid]; 1,4-piperzine-diethanesulfonic acid) buffer is as shown in Table 1.
For orientation: In SPR one partner is held on a chip, and binding of the other changes the refractive index at the surface.

The next assay deals with Papilla cells. Kind of assay: SPR measurement of reaction of papilla cells (mesenchyme cells) with bFGF, with or without phosphorylation inhibitor. Particulars: for SPR signal from 10 minutes after the injection: 37° C., 1 μg/ml bFGF alone, or bFGF + 50 μM SU4984. The procedure: as §1, §2
Papilla cells were removed from a petri dish with 0.02% EDTA and suspended in a DMEM10 culture medium. The cells (2×10^5 cells/ml, 400 μl) were immobilized on a sensor chip in the same manner as in Example 1.
PBS was perfused at a flow rate of 15 μl/min at a fixed temperature of 37° C.; 1 μg/ml of bFGF alone was injected into a control portion, and 60 μl of μg/ml bFGF+50 μM phosphorylation inhibitor (SU4984) into a measuring portion; after a lapse of 42 seconds the circuit was closed and the change of signals was measured.

Another assay deals with CTLL-2 cells. Put plainly: SPR measurement of reaction of CTLL2 cells (suspended cells) with IL-2. Particulars: living CTLL-2 cells immobilized on sensor chip, 37° C., PBS perfusion 15 μl/min; IL-2 62.5 ng/ml, 60 μl.
Text: In the method of the invention, cells are immobilized on a analyzer in the same manner as in the usual SPR measurement for vial cells, to which a stimulus as mentioned above is given to determine the signal as a change of permittivity in a conventional procedure.
as §1, §2
The suspension (30 μl)of CTLL-2 cells (2×10^5 cells/ml) in PBS were directly placed onto both of sensor chip-measuring portion and control portion, and the chip was blocked with 50 μl of 1% BSA. The sensor chip was equipped in a flow-cell unit of the SPR analyzer, of which the temperature was set at 37° C. and was perfused with PBS at a flow rate of 15 μl/min.

Setting [1] is: 10 μg/ml DNP-lysine, PIPES buffer pH 7.2, 37° C.
[2] abbreviates: 60 μl of 100 ng/ml DNP-HSA, PIPES buffer pH 7.2, 37° C.

Consider `N[C@@H](CCCCNc1ccc([N+](=O)[O-])cc1[N+](=O)[O-])C(=O)O` [DNP-lysine], for which, in the assay on Mast cells (setting [1]), the “primary SPR signal in mast cells” value is “primary signal generated by the binding of DNP-lysine was observed” and the “secondary SPR signal in mast cells” value is recorded as “no secondary signal observed”.

Turning to `O=CN1CCN(c2ccc(/C=C3\C(=O)Nc4ccccc43)cc2)CC1` [SU4984], in the assay on Papilla cells, the “SPR signal from 10 minutes after the injection” value was “became plateau”. The “signal transduction caused by the binding of bFGF” value in the assay with Papilla cells (bFGF + 50 μM SU4984) is given as “suppressed”.

In the case of “aFGF: agent which does not bind to CTLL-2 cells”, the “SPR signal (difference between measuring portion and control portion)” value in the assay on CTLL-2 cells is listed as “no signal was observed”.

For “bFGF: growth factor injected onto papilla cells; does not bind to CTLL-2 cells”, in the assay with CTLL-2 cells, the “SPR signal (difference between measuring portion and control portion)” value was “no signal was observed”. For the same molecule, in the assay with Papilla cells, the “SPR signal from 10 minutes after the injection” value is reported as “ascended continuously”.

Regarding “dinitrophenyl-human serum albumin [DNP-HSA]”, in the assay with Mast cells (100 ng/ml DNP-HSA, IgE sensitized versus unsensitized cells), the “primary SPR signal in mast cells (FIG. 3)” value is “no primary signal was recorded”. Further, in the assay with Mast cells (setting [2]), the “SPR signal in IgE sensitized mast cells” value is given as “a strong signal was observed” and the “SPR signal in IgE unsensitized mast cells” value is “no characteristic change”.

B1: pleiotrophin: agent which does not bind to CTLL-2 cells (protein, UniProt P21246 33-168, looked up)
Pleiotrophin: GKKEKPEKKVKKSDCGEWQWSVCVPTSGDCGLGTREGTRTGAECKQTMKTQRCKIPCNWKKQFGAECKYQFQAWGECDLNTALKTRTGSLKRALHNAECQKTVTISKPCGKLTKPKPQAESKKKKKEGKKQEKMLD
As to B1, the “SPR signal (difference between measuring portion and control portion)” value in the assay with CTLL-2 cells is “no signal was observed”.
